{
  "source": "patent US11535597B2",
  "about": "“Photoreactive ligands and uses thereof” (The Scripps Research Institute, priority 2017, dated 2022)",
  "key": {"PTGR2": {"target": "PTGR2 (Homo sapiens, UniProt Q8N8N7)", "sequence (Q8N8N7 whole entry)": "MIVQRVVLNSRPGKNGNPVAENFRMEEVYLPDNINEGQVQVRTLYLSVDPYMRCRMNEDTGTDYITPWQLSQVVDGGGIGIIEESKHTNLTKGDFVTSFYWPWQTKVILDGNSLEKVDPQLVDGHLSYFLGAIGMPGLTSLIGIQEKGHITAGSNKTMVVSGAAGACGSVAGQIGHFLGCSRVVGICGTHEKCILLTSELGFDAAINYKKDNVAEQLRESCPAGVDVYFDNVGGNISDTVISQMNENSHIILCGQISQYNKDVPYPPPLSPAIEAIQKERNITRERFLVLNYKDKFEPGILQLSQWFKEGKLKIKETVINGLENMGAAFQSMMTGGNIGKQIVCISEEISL", "test": "MS-based (SILAC) competition of FFF probe 8 labeling of endogenous PTGR2 in HEK293T cells", "format": "binding", "method": "(§1) For gel-based experiments, cells were grown in 6-well plates to ˜90% confluence at the time of treatment. Cells were carefully washed with Dulbecco's phosphate buffered saline (DPBS) and replenished with fresh serum-free media containing indicated FFF probe, and, if applicable, competitors or DMSO vehicle (1 mL). Following incubation at 37° C. for 30 min, cells were directly exposed to 365 nm light for 10 min. For no UV experiments, cells were incubated at 4° C. for 10 min under ambient light. For MS-based experiments, cell labeling was performed in a similar manner as described above. Modifications to this protocol included using isotopically ‘light’ and ‘heavy’ SILAC cells that were grown to near complete confluence prior to treatment in 10 cm plates. In probe-versus-control probe and probe-versus-probe experiments, isotopically light cells were treated with indicated fragment probe, while the heavy cells were treated with control probe (1), or additional FFF probe to be compared, at indicated concentrations. […]\n(§2) Cells pellets were lysed in cold DPBS (100-500 µL) using a Branson Sonifier probe sonicator (10 pulses, 30% duty cycle, output setting=4). […] Protein concentration was determined using the DC Protein Assay (Bio-Rad) and absorbance read using a Tecan, Infinite F500 plate reader following manufacturer's instructions. […]"}, "ZADH2": {"target": "T1, ZADH2 (Homo sapiens, UniProt Q8N4Q0)", "T1 construct": "endogenous in cells; host or cells: HEK293T", "T1 sequence (Q8N4Q0 1-377)": "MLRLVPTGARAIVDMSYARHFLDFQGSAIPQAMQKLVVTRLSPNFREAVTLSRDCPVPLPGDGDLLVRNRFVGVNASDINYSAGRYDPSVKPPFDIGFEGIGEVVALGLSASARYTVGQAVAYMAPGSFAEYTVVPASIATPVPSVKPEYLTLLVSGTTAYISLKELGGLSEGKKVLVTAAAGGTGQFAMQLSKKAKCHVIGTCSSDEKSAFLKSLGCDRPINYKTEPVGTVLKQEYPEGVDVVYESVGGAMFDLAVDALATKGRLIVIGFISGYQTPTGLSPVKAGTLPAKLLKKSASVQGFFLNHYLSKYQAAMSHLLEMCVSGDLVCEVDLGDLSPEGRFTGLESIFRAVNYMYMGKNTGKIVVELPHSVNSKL", "test": "MS-based (SILAC) competition of FFF probe 8 labeling of ZADH2 in HEK293T cells", "format": "binding", "details": "competition with FFF probe 8 (20 μM)", "method": "as §1, §2"}},
  "data": [
    {"smiles": "COc1ccccc1N1CCN(C(=O)Cc2ccccc2)CC1", "note": "[Compound 22, 1-(4-(2-Methoxyphenyl)piperazin-1-yl)-2-phenylethan-1-one]", "values": [
      {"measurement": "inhibition at 0.5 µM", "setting": "PTGR2; 500 nM", "value": "~80", "unit": "%"},
      {"measurement": "inhibition of FFF 8 labeling of endogenous PTGR2", "setting": "PTGR2; 5 μM", "value": "complete inhibition"},
      {"measurement": "cross-reactivity with ZADH2", "setting": "ZADH2", "value": "did not cross-react"}
    ]}
  ]
}
